The values that follow are results of earlier work, collected in PubChem BioAssay AID1259409 (Chemical Carcinogenesis Research Information System (CCRIS), 2018).

The data set concerns rodent chemically induced tumor inhibition, incidence and multiplicity. Description: CCRIS tumor inhibitor studies. The conditions noted are these: Dose [Inhibitor]: 0, Route [Inhibitor]: SUBCUTANEOUS, Promoter: NONE USED.

As to `CCC(=O)Oc1ccc2c(c1)CC[C@@H]1[C@@H]2CC[C@]2(C)[C@@H](OC(=O)CC)CC[C@@H]12`, the “tumour outcome (control, treated, inhibition, significance)” value is recorded as 23/36 (64%), 7/37 (19%), 70%, p=0.026 (Carcinogen: 1,2-DIMETHYLHYDRAZINE, 540-73-8, 0.1 ML OF A SOLUTION IN OLIVE OIL 1/WK FOR 30 WK ADMINISTERED 1 DAY PRIOR TO EACH CARCINOGEN DOSE AND CONTINUING FOR, Species: MOUSE, Strain/Sex: C3H/FEMALE, Target Tissue: Type of Lesion: CLITORAL GLAND: TUMORS, Dose [Carcinogen]: 8 MG/KG BW 1/WK FOR 20 WK) and 8/11 (73%), 1/7 (14%), 81%, p<0.05 (Carcinogen: 7,12-DIMETHYLBENZ[A]ANTHRACENE, 57-97-6, 1 MG/100 G BW 1/WK FOR 150 D BEGINNING POST CARCINOGEN TREATMENT (STUDY DURATION: 150 D), Species: RAT, Strain/Sex: WISTAR/FEMALE, Target Tissue: Type of Lesion: MAMMARY GLAND: ADENOCARCINOMA, Dose [Carcinogen]: 4 MG IN 0.1 ML OF SESAME OIL INJECTED ONCE INTO THE EXPOSED MAMMARY TISSUE OF HYPERPROLACTINEMIC RATS ON DAY 73 OF AGE).
